Several values for one entry are separate records, joined by “and”; a condition that tells them apart may be missing. Equal entries are not always repeated.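 Exposure lasted 48 hours, with cells grown in 96-well plates and compounds tested at five concentrations. Abbreviation: GI50, concentration required for 50% inhibition of growth. TGI: total growth inhibition.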
Assays:
Experiment in all cases: NCI-60 cell line screen, 48 h
786-0 renal = tested on: 786-0 renal
A498 renal = tested on: A498 renal
ACHN renal = tested on: ACHN renal
IGROV1 ovarian = tested on: IGROV1 ovarian
MOLT-4 leukemia = tested on: MOLT-4 leukemia
NCI-H460 lung = tested on: NCI-H460 lung
NCI-H522 lung = tested on: NCI-H522 lung
OVCAR-4 ovarian = tested on: OVCAR-4 ovarian
OVCAR-5 ovarian = tested on: OVCAR-5 ovarian
SNB-78 CNS = tested on: SNB-78 CNS

Structure (SMILES) | TGI (786-0 renal) [µM] | TGI (A498 renal) [µM] | TGI (ACHN renal) [µM] | TGI (IGROV1 ovarian) [µM] | TGI (MOLT-4 leukemia) [µM] | TGI (NCI-H460 lung) [µM] | TGI (NCI-H522 lung) [µM] | TGI (OVCAR-4 ovarian) [µM] | TGI (OVCAR-5 ovarian) [µM] | TGI (SNB-78 CNS) [µM] | GI50 (786-0 renal) [µM] | GI50 (A498 renal) [µM] | GI50 (ACHN renal) [µM] | GI50 (IGROV1 ovarian) [µM] | GI50 (MOLT-4 leukemia) | GI50 (NCI-H460 lung) [µM] | GI50 (OVCAR-4 ovarian) [µM] | GI50 (OVCAR-5 ovarian) [µM] | GI50 (SNB-78 CNS) [µM]
CCC1c2cc3n(c(=O)c2COC1O)Cc1c-3nc2ccccc2c1Cl (centres undefined) | > 100 | > 100 | > 84 | > 100 | > 73 | > 100 | > 100 | > 100 | > 100 | > 100 | – | – | – | – | – | – | – | – | –
NC(=S)N/N=C(\CCC(=O)Nc1ccccc1[N+](=O)[O-])CC(=O)c1ccco1 | > 100 | > 100 | > 100 | > 100 | > 100 | > 100 | > 100 | > 100 | > 100 | > 100 | – | – | – | – | – | – | – | – | –
Cc1ccc(NC(=O)/C(=N\NC(N)=S)C(C#N)c2ccccc2C)cc1C (centres undefined) | > 100 | > 100 | > 100 | > 100 | > 100 | > 100 | > 100 | > 100 | > 100 | > 100 | – | – | – | – | – | – | – | – | –
O=c1nc(N2CCCC2)nc(N2CCCC2)s1 | > 100 | > 100 | > 100 | > 100 | > 100 | > 100 | > 100 | > 100 | > 100 | > 100 | – | – | – | – | – | – | – | – | –
COc1ccc2[nH]c3c4c(cc(-c5ccccc5)c3c2c1)C(=O)N(c1ccccc1)C4=O | 29.5 | > 73.8 | > 100 | > 100 | > 100 | > 100 | 61 | 3.56 | > 100 | > 88.3 | – | – | – | – | – | – | – | – | –
C=C(COC(C)=O)CC(/C=C(\C)CC/C=C(\C)CO)OC(C)=O (centres undefined) | > 100 | > 100 | > 100 | > 100 | > 100 | > 100 | > 100 | > 100 | > 100 | > 100 | – | – | – | – | – | – | – | – | –
O=C(O)c1ccc(C(=O)O)c(C(=O)O)c1.[NH-]C1CCCCC1[NH-].[Pt+2] | > 74.7 | 45.1 | 44.1 | 44.6 | 20 | 19.1 | 24.7 | 50.2 | 35.5 | 99.9 | 1.99 | 6.28 | 1.96 | 4.57 | 0.5 µM and 4.84 µM | 0.889 | 7.73 | 6.32 | 24.6
Cn1c2cc([N+](=O)[O-])ccc2c(=O)c2c(O)cc3c(c21)C=CC(C)(C)O3 | > 100 | > 100 | > 100 | > 100 | > 100 | > 100 | > 100 | > 100 | 80.4 | > 100 | – | – | – | – | – | – | – | – | –
CCCCN(CCCC)CC(C(=O)Nc1ccc([N+](=O)[O-])cc1[N+](=O)[O-])/C(C)=N\NC(=O)C[N+](C)(C)C (centres undefined) | > 100 | > 100 | > 100 | > 100 | > 100 | > 100 | > 100 | > 100 | > 100 | > 100 | – | – | – | – | – | – | – | – | –
NC1=NC2=C(CCCC2)C(c2cccs2)S1 (centres undefined) | > 100 | > 100 | > 100 | > 100 | > 100 | > 100 | > 100 | > 100 | > 100 | > 100 | – | – | – | – | – | – | – | – | –
CC(=O)CC(=O)NC=O | > 100 | > 100 | > 100 | > 100 | > 100 | > 100 | > 100 | > 100 | > 100 | > 100 | – | – | – | – | – | – | – | – | –
CN(C)c1ccc(/C=c2\sc3nnc(-c4cccnc4)n3c2=O)cc1 | > 100 | > 100 | > 100 | > 100 | > 100 | > 100 | > 100 | > 100 | > 100 | > 100 | – | – | – | – | – | – | – | – | –
CC(C)(CN1CCCCC1)C(=O)CC(SCCN)c1ccc(Cl)cc1 (centres undefined) | 3.21 | 6.65 | 9.85 | 8.48 | 4.72 | 5.43 | 4.8 | 10.1 | 13.2 | 8.9 | – | – | – | – | – | – | – | – | –
O=[N+]([O-])c1ccc(/C(Cl)=C/c2ccc(/C=C(\Cl)c3ccc([N+](=O)[O-])cc3[N+](=O)[O-])cc2)c([N+](=O)[O-])c1 | > 100 | > 100 | > 100 | > 100 | > 100 | > 100 | > 100 | > 100 | > 100 | > 100 | – | – | – | – | – | – | – | – | –
CC(=O)SC(SC(C)=O)SC(C)=O | > 100 | > 100 | > 100 | > 100 | > 100 | > 100 | 45.2 | > 100 | > 100 | > 100 | – | – | – | – | – | – | – | – | –
COC1=CC(=O)OC(/C=C(C)/C=C/C2=C(C)CCCC2(C)C)C1 (centres undefined) | > 100 | > 100 | > 100 | > 100 | > 100 | > 100 | > 100 | > 100 | > 100 | > 100 | – | – | – | – | – | – | – | – | –

Source: PubChem BioAssay (NCI)
